In test [1] the target is T1, cardiac ryanodine receptor (cardiac membranes) (Canis lupus familiaris, UniProt A0A8I3MT21).
T1 construct: Canine cardiac junctional SR vesicles were isolated as described previously; from tissue; host or cells: canine cardiac junctional SR vesicles / cardiac microsomes
The test is described as follows: [3H]Ryanodine competition binding to cardiac membranes. More on the design: species or system canine. An excerpt:
(§1) Canine cardiac junctional SR vesicles were isolated as described previously (Witcher et al., J. Biol. Chem. 266, 1114-11152 (1991)). Crude rabbit brain membranes were purified as previously described (Witcher et al., J. Biol. Chem. 267, 4963-4967 (1992)).

Test [2] addresses T2, brain ryanodine receptor (brain membranes) (Oryctolagus cuniculus, UniProt P30957).
T2 construct: Crude rabbit brain membranes were purified as previously described; from tissue; host or cells: crude rabbit brain membranes (microsomes)
In words: [3H]Ryanodine competition binding to brain membranes. On the set-up: species or system rabbit.
From the text: as §1

The target in test [3] is T3, skeletal muscle ryanodine receptor (Oryctolagus cuniculus, UniProt P11716).
T3 construct: Rabbit skeletal muscle triads were prepared as previously described; from tissue; host or cells: rabbit skeletal muscle triads
The test is described as follows: [3H]Ryanodine competition binding to rabbit skeletal muscle triads. As for the experimental part: Rabbit skeletal muscle triads were prepared as previously described (Sharp et al., J. Biol. Chem. 262: 12309-12315 (1987)). […]

Test [4] relates to anti-ryanodine antibodies. In words: Competitive radioimmunoassay: inhibition of [3H]ryanodine-antibody binding (dextran-coated charcoal assay). More on the design: species or system rabbit. Conditions: for binds times less tightly than ryanodine (antibody): relative to ryanodine. As for the experimental part: Binding was performed in triplicate in 1.5 ml polypropylene tubes. […] Following the addition of serial dilutions of antibody, the tubes were shaken and incubated for 1 h at room temperature. The tubes were placed on ice for 10 min and then 0.2 ml of stirred, ice-cold dextran-coated charcoal (0.0625% Dextran T-70, 0.625% Norit A charcoal in TSG) was added to each tube. The tubes were shaken and incubated for an additional 10 min on ice. […] Controls without antiserum were included to determine the amount of radiolabel that could not be precipitated by the charcoal.
Ryanodine derivatives were prepared by serial dilution in TSG.

The target in test [5] is T3, skeletal muscle ryanodine receptor. The test is described as follows: Photoaffinity labeling of skeletal muscle triads with [3H]ABRy. Format: binding, rabbit. As for the experimental part:
Since [^3 H]ABRy contains a photoactivatable azido group, this compound was used to covalently label skeletal muscle triads following equilibrium binding. […] The membranes were then pelleted at 400,000×g for 15 min and resuspended in 1 ml of the binding buffer with 5 mM glutathione. The samples were placed in a plastic petri dish at 4° C. and were exposed to UV light (365 nm) at a distance of 1 cm for 45 min. The membranes were then centrifuged in a microfuge at maximum speed for 15 min. at 4° C. The pellets were resuspended in Laemmli sample buffer.
The proteins were then analyzed by SDS-PAGE (3-12% gradient gels) using the buffer system of Laemmli (Nature 227, 680-685 (1970)). Gels were stained with Coomassie blue or transferred to nitrocellulose for immunoblot analysis as previously described (Witcher et al., Science 261, 486-489 (1993)). […] Gels used for fluorography were first stained with Coomassie blue, destained, soaked in Enlightning (DuPont), and dried under vacuum. The dried gels were then exposed to Kodak XAR-5 film at -80° C. The fluorograms were also analyzed densitometrically using a Molecular Dynamics Model 300A scanning densitometer.

Setting [6] is: IC50 for binding to the ryanodine receptor, rabbit skeletal membranes, from FIG. 5, unit inferred.
The mark [7] stands for this setting: 1 nM [3H]ryanodine, 1:8,000 dilution of anti-ryanodine antibody, read-out: Inhibition of [^3 H] ryanodine-antibody binding, IC50.
Where [8] appears, read: from FIG. 5, unit inferred, read-out: IC50 for binding to anti-ryanodine antibodies.

Like-named read-outs stand apart in the source and are kept apart here.

T3 sequence (P11716 whole entry): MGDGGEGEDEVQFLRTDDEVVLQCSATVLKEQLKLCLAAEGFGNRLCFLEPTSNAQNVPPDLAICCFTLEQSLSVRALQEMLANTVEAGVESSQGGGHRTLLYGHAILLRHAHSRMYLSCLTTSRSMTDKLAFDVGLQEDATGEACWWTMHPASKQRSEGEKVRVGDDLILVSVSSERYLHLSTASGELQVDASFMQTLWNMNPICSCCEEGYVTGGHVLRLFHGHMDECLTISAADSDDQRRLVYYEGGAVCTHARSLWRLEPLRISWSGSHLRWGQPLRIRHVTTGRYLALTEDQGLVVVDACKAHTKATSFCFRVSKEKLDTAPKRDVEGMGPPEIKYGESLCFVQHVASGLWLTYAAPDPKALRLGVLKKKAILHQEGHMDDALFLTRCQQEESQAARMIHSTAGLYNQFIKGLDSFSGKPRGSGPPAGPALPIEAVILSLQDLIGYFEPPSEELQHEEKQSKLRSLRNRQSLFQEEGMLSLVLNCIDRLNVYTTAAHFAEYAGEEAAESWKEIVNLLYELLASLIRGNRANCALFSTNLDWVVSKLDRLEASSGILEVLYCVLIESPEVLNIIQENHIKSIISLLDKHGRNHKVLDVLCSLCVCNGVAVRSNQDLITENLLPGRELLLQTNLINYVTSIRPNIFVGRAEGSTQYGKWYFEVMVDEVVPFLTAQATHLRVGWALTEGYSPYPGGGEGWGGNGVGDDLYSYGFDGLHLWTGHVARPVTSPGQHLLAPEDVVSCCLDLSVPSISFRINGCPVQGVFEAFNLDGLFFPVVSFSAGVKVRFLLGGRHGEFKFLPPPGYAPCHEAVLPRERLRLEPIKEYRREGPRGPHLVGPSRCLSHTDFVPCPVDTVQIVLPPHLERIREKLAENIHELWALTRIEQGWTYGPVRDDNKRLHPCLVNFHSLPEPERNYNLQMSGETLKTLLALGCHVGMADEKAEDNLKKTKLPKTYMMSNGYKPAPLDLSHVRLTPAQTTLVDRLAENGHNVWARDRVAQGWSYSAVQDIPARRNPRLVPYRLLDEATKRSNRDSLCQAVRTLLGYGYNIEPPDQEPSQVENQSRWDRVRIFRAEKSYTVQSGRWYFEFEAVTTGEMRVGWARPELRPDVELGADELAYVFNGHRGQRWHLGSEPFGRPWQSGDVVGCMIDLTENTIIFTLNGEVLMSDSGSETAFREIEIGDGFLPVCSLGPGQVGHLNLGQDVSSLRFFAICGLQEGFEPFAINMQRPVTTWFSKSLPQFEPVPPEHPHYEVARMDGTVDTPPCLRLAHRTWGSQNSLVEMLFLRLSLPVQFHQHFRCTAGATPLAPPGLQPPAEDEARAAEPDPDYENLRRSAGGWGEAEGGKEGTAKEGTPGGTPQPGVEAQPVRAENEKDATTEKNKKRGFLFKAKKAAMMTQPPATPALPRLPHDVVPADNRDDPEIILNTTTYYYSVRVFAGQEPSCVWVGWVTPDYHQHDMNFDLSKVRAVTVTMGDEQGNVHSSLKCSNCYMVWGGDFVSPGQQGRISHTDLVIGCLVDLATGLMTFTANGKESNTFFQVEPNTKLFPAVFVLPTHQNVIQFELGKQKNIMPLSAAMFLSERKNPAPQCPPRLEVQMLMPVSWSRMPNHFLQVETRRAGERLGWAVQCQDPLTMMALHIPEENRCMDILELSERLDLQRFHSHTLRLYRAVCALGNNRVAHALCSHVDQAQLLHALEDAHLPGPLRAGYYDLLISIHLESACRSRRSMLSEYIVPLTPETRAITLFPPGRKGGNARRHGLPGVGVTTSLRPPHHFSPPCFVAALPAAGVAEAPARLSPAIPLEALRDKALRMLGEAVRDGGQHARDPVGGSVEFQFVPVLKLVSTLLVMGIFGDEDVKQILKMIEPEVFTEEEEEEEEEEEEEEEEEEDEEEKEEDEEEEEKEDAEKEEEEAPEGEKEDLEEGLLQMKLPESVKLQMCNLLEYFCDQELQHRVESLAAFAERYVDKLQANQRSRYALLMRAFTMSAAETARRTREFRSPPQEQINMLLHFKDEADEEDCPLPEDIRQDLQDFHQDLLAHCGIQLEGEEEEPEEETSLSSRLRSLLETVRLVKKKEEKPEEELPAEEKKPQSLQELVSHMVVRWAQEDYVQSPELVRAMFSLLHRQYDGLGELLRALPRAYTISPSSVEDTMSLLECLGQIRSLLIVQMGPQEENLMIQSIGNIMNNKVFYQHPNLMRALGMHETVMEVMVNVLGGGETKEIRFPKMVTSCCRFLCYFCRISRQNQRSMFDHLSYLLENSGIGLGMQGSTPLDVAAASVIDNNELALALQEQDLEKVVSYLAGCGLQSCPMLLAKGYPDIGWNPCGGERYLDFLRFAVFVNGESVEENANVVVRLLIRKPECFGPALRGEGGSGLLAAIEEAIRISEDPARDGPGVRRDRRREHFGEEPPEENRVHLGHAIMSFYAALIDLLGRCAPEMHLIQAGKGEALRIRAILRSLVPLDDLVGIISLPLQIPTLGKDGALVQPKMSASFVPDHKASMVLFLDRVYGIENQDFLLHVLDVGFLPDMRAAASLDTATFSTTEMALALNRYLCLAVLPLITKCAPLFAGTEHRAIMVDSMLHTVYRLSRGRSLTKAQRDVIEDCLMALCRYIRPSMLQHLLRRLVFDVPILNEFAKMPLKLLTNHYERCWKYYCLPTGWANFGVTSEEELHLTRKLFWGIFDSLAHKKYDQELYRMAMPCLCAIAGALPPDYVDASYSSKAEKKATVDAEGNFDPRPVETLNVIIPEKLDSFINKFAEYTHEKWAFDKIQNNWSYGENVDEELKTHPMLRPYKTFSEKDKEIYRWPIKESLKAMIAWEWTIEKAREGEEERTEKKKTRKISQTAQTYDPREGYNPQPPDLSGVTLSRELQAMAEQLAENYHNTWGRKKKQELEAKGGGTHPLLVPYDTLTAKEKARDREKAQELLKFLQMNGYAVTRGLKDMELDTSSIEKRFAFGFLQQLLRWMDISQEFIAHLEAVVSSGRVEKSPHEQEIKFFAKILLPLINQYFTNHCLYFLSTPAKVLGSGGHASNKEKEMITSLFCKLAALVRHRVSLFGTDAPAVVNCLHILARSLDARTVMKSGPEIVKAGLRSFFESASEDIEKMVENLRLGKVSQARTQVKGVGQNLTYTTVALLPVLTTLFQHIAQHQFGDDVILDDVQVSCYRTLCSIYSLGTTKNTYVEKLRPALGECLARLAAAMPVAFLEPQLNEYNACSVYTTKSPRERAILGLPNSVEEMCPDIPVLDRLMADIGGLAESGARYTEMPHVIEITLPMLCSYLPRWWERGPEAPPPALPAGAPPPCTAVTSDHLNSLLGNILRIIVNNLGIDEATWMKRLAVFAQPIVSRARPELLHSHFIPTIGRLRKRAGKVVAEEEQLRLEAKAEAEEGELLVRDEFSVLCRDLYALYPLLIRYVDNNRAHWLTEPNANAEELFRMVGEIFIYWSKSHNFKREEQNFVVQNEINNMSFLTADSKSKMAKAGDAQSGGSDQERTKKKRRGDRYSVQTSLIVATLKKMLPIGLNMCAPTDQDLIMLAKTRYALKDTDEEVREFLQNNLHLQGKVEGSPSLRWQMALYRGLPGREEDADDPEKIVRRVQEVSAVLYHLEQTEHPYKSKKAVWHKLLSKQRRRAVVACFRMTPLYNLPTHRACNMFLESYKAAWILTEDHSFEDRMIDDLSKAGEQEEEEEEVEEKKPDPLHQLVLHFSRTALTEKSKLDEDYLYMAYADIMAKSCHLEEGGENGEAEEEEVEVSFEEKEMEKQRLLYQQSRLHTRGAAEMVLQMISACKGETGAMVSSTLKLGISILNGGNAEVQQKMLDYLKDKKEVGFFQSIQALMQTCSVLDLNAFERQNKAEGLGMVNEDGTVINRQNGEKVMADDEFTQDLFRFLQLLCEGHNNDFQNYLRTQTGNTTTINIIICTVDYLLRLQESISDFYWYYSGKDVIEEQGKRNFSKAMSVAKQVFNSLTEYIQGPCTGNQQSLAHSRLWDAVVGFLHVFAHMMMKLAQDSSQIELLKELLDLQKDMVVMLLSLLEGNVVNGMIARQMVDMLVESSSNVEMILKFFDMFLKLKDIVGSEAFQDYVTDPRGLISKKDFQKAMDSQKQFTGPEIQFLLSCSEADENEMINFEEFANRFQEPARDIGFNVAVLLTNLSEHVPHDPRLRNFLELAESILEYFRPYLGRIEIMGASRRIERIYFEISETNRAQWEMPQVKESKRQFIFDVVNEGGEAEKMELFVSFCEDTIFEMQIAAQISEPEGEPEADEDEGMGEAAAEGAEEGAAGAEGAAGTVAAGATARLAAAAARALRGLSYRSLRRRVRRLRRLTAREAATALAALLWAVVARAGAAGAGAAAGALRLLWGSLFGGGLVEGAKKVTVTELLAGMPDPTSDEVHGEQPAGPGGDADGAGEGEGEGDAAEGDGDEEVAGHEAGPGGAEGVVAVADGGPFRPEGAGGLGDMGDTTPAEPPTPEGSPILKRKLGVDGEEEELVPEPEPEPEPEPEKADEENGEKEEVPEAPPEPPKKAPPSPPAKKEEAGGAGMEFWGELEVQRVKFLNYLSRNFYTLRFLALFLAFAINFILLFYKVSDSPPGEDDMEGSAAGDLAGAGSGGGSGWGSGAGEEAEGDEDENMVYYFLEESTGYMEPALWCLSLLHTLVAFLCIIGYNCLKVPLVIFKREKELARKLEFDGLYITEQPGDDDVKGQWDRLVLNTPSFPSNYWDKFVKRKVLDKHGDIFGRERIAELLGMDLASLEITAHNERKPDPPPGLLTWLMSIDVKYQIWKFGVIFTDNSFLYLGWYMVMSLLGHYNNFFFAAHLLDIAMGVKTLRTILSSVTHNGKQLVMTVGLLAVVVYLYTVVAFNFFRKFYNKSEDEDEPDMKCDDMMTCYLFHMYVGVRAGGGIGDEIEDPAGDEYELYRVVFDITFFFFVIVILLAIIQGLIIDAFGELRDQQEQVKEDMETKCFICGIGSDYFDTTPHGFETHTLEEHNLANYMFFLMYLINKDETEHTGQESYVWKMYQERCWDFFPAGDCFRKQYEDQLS

For orientation: IC50 means the concentration that inhibits the measured activity by half. As for `CC1CCC2(O)C3(C)CC4(O)OC2(C1OC(=O)CCNC(=O)c1ccc(N=[N+]=[N-])cc1)C1(O)C3(O)C(OC(=O)c2ccc[nH]2)C(O)(C(C)C)C41C` (centres unmarked) [Compound 10, 10-O-(3-[4-Azidobenzamido]-propionyl)-ryanodine], the concentration for half-maximal inhibition (IC50) in test [1] is 0.089 µM; in test [2], 0.025 µM; in test [3] (setting [6]) it was < 0.1 µM; in test [3] (half-maximal inhibition of [3H]ryanodine binding to triads, skeletal muscle triads, 1 nM [3H]ryanodine, 1 hr at 37° C.), ~0.037 µM; in test [4] (setting [7]), 0.0032 µM; in test [4] (setting [8]), < 0.1 µM. In addition, the “binding to ryanodine receptor / skeletal membranes compared with ryanodine” value in test [3] is on record as “very nearly matched the affinity of native ryanodine”. Moreover, the entries for the “binding to anti-ryanodine antibodies compared with ryanodine (words)” value (from here on “binding … compared with ryanodine (words)”) in test [4] and in test [4] (listed as compound 10) were “very nearly matched the affinity of native ryanodine” and “IC50 values similar to ryanodine”, respectively. Besides, in test [5], the “proteins bound (specificity, words)” value is “only is capable of binding to the 565 kDa ryanodine receptor/Ca^2+ release channel”.

As to `CC(C)C1(O)C(OC(=O)c2ccc[nH]2)C2(O)C3(C)CC4(O)OC5(C(O)C(CSCCCCO)CCC35O)C2(O)C41C` (centres unmarked) [Compound 4, 21-(4-Hydroxybutylmercapto)-ryanodine], the figures for the IC50 in test [3] (setting [6]), in test [4] (setting [7]) and in test [4] (setting [8]) were < 1 µM, 0.025 µM and < 1 µM, respectively. The “binds times less tightly than ryanodine (antibody)” value in test [4] is recorded as “about 10 times”.

With `CC(C)C1(O)C(OC(=O)c2ccc[nH]2)C2(O)C3(C)CC4(O)OC5(C(O)C(CSCCCCOC(=O)c6ccc(N=[N+]=[N-])cc6)CCC35O)C2(O)C41C` (centres unmarked) [Compound 6], in test [3], the “binding to ryanodine receptor / skeletal membranes compared with ryanodine” value is “lowest affinity”. Further, the IC50 was > 0.1 µM in test [3] (setting [6]), 0.198 µM in test [4] (setting [7]) and > 0.1 µM in test [4] (setting [8]). Also, the “binding … compared with ryanodine (words)” value in test [4] is on record as “lowest affinity”. Also, the “binds times less tightly than ryanodine (antibody)” value in test [4] is given as ~100 times.

On to `CC1CCC2(O)C3(C)CC4(O)OC2(C1OC(=O)CCNC(=O)c1ccc(C(=O)c2ccccc2)cc1)C1(O)C3(O)C(OC(=O)c2ccc[nH]2)C(O)(C(C)C)C41C` (centres unmarked) [Compound 12, 10-O-(3-[4-benzoylbenzamido]-propionyl)-ryanodine], for which, in test [3], the “binding to ryanodine receptor / skeletal membranes compared with ryanodine” value was “very nearly matched the affinity of native ryanodine”. For the same compound, the 50% inhibitory concentration (IC50) in test [3] (setting [6]) is < 0.1 µM; in test [4] (setting [7]), 0.006 µM; in test [4] (setting [8]) it was < 0.1 µM. The “binding … compared with ryanodine (words)” value in test [4] is “very nearly matched the affinity of native ryanodine”; in test [4] (listed as compound 12) it was “IC50 values similar to ryanodine”.

For the compound `CC1CCC2(O)C3(C)CC4(O)OC2(C1OC(=O)CCNC(=O)c1cc(N=[N+]=[N-])ccc1[N+](=O)[O-])C1(O)C3(O)C(OC(=O)c2ccc[nH]2)C(O)(C(C)C)C41C` (centres unmarked) [Compound 11, 10-O-(3-[2-Nitro-5-azidobenzamido]-propionyl)-ryanodine], the “binding to ryanodine receptor / skeletal membranes compared with ryanodine” value in test [3] was “very nearly matched the affinity of native ryanodine”. For the same compound, the IC50 is < 0.1 µM in test [3] (setting [6]), 0.0032 µM in test [4] (setting [7]) and < 0.1 µM in test [4] (setting [8]). The “binding … compared with ryanodine (words)” value in test [4] is “very nearly matched the affinity of native ryanodine”; in test [4] (listed as compound 11) it was “IC50 values similar to ryanodine”.

As to `CC1CCC2(O)C3(C)CC4(O)OC2(C1O)C1(O)C3(O)C(OC(=O)c2ccc[nH]2)C(O)(C(C)C)C41C` (centres unmarked) [[^3 H]ryanodine, reference compound], the Kd in test [4] (method of Muller, read-out: average antibody apparent dissociation constant (Kd) for the [3H]ryanodine-antibody complex) is 0.001 µM.

Turning to `CC1CCC2(O)C3(C)CC4(O)OC2(C1O)C1(O)C3(O)C(OC(=O)c2ccc[nH]2)C(O)(C(C)C)C41C` (centres unmarked) [Ryanodine, reference compound], the “binding to ryanodine receptor / skeletal membranes compared with ryanodine” value in test [3] is listed as “highest affinity”. Besides, in test [4], the “binding … compared with ryanodine (words)” value is recorded as “highest affinity”. The IC50 was 0.0016 µM in test [4] (setting [7]) and < 0.01 µM in test [4] (setting [8]).

Consider `CC(C)C1(O)C(OC(=O)c2ccc[nH]2)C2(O)C3(C)CC4(O)OC5(C(O)C(CSCCOC(=O)C(=[N+]=[N-])C(F)(F)F)CCC35O)C2(O)C41C` (centres unmarked) [Compound 7, 21-(2-[3,3,3-Trifluoro-2-diazopropionyloxy]-ethylmercapto)-ryanodine], for which the IC50 in test [3] (setting [6]) was < 1 µM; in test [4] (setting [7]), 0.004 µM; in test [4] (setting [8]) it was < 1 µM. Also, the “binding … compared with ryanodine (words)” value in test [4] is given as “little effect on the IC50”.

The values above are taken from patent publication US5492839A (priority 1994, dated 1996).
